Patent US11673916B2, “Neuroprotective peptides and methods of their use” (University of Pittsburgh—Of the Commonwealth System of …, priority 2020, dated 2023)

Tested on: cortical neurons
Experiment: Cell toxicity assay (LDH release) after excitotoxic TBOA treatment
Assay type: cell-based, rat
Settings: 3 μM peptide, TBOA 60 μM, LDH 24 h after initial TBOA treatment, mean±SEM (FIG. 4D)
Description: Cortical neurons were pre-treated with vehicle, TAT-DP-2 (3 μM), or TAT-Sc-2 (3 μM) for 2 hours in HEPES-buffered minimal essential media with 0.01% bovine serum albumin (MHB). Next, cells with the same peptide concentrations along with either vehicle or 60 μM DL-threo-β-benzyloxyaspartic acid (TBOA) for 6 hours. Each well was washed two times with either 0.5 mL of vehicle or 60 μM TBOA and neurons were incubated overnight. Twenty-four hours following initial TBOA treatment, media was collected for lactate dehydrogenase assays (Sigma Aldrich, St. Louis, Mo.). Relative toxicity was quantified by calculating the ratio of LDH concentration in TBOA-treated over non-TBOA-treated wells. […]
With evidence that TAT-DP-2-mediated declustering prevents enhancement of pro-apoptotic Kv2.1 potassium currents following injury, the neuroprotective actions of TAT-DP-2 in cortical neurons in vitro were next tested. […] Neurotoxicity was assessed by the release of lactate dehydrogenase (LDH) into the culture medium, as described previously (Aras, et al., Curr Protoc Neurosci. 44: 7.18.1-7.18.15, 2008). […] Based on these findings, the potential neuroprotective actions of TAT-DP-2 were evaluated in an in vivo model of ischemia-reperfusion injury, where a substantial contribution of Kv2.1-enabled neuronal cell death has been previously observed (Yeh et al., J Neurosci. 37: 5648-5658, 2017).

Row | Sequence | mean relative toxicity ([LDH]TBOA/[LDH]Veh)
1 | YGRKKRRQRRRDFSSIST [TAT-Sc-2, TAT-linked scramble control peptide] | 1.57±0.15
2 | YGRKKRRQRRRSIDSFTS [TAT-DP-2, TAT-linked declustering peptide 2] | 1.01±0.15
